Laboratory results: patent US9815794B2, “Inhibition of bacterial biofilms and microbial growth with imidazole derivatives” (North Carolina State University, priority 2011, dated 2017)
In brackets after ≈: the same amount, converted by molar mass.

Columns and labels:
L. anguillarum = assay: Dispersion of pre-formed biofilms; format: cell-based, Listonella anguillarum; settings: Vibrio anguillarum, read-out: EC50, 50% dispersion of a pre-formed biofilm
Experimental: (§1) The ability of 15 and 19 to disperse pre-formed biofilms was also determined for all of the aforementioned bacterial strains (both marine and terrestrial). To quantify this effect, the EC50 value of each compound against each bacterial strain was determined, where EC50 is defined as the concentration of compound that elicits 50% dispersion of a pre-formed biofilm. Both compounds are able to disperse pre-formed biofilms at low micromolar concentrations. These concentrations are also microbicidal to planktonic bacteria. […]
(§2) Preformed Biofilms: Dispersion assays were performed by taking an overnight culture of bacterial strain and subculturing it at an OD600 of 0.01 into the necessary medium (brain heart infusion for E. faecium, tryptic soy broth with a 0.5% glucose supplement (TSBG) for MRSA, S. aureus and S. epidermidis, Luria-Bertani (LB) medium for MDRAB and E. coli, and tryptic soy broth with a 0.5% glucose supplement and a 3.0% NaCl supplement (TGN) for R. salexigens, V. cholerae, V. vulnificus and L. anguillarum.) The resulting bacterial suspension was aliquoted (100 μL) into the wells of a 96-well PVC microtiter plate. […] Biofilm dispersion was quantitated by measuring the OD540 of each well in which a negative control lane wherein no biofilm was formed served as a background and was subtracted out.

R. salexigens = assay: Dispersion of pre-formed biofilms; format: cell-based, Rhodospirillum salexigens; settings: Rhodothalassium salexigens, read-out: EC50, 50% dispersion of a pre-formed biofilm
Experimental: as §1, §2

VRE = assay: Dispersion of pre-formed biofilms; format: cell-based, E. faecium (VRE); settings: Enterococcus, read-out: EC50, 50% dispersion of a pre-formed biofilm
Experimental: as §1, §2

Vibrio cholerae = assay: Marine bacteria microdilution MIC; format: cell-based; settings: V. cholerae
MDRAB = assay: Dispersion of pre-formed biofilms; format: cell-based; settings: read-out: EC50, 50% dispersion of a pre-formed biofilm
Experimental: (§3) The ability of 15 and 19 to disperse pre-formed biofilms was also determined for all of the aforementioned bacterial strains (both marine and terrestrial). To quantify this effect, the EC50 value of each compound against each bacterial strain was determined, where EC50 is defined as the concentration of compound that elicits 50% dispersion of a pre-formed biofilm. Both compounds are able to disperse pre-formed biofilms at low micromolar concentrations. These concentrations are also microbicidal to planktonic bacteria.
(§4) Procedure to Determine the Dispersal Effect of Test Compounds on E. faecium (VRE), MRSA, S. aureus, S. epidermidis, E. coli, R. salexigens, V. cholerae, V. vulnificus and L. anguillarum
(§5) Preformed Biofilms: Dispersion assays were performed by taking an overnight culture of bacterial strain and subculturing it at an OD600 of 0.01 into the necessary medium (brain heart infusion for E. faecium, tryptic soy broth with a 0.5% glucose supplement (TSBG) for MRSA, S. aureus and S. epidermidis, Luria-Bertani (LB) medium for MDRAB and E. coli, and tryptic soy broth with a 0.5% glucose supplement and a 3.0% NaCl supplement (TGN) for R. salexigens, V. cholerae, V. vulnificus and L. anguillarum.) The resulting bacterial suspension was aliquoted (100 μL) into the wells of a 96-well PVC microtiter plate. Plates were then wrapped in GLAD Press n' Seal® followed by an incubation under stationary conditions at 37° C. to establish the biofilms. After 24 h, the medium was discarded from the wells and the plates were washed thoroughly with water. Stock solutions of predetermined concentrations of the test compound were then made in the necessary medium. These stock solutions were aliquoted (100 μL) into the wells of the 96-well PVC microtiter plate with the established biofilms. Medium alone was added to a subset of the wells to serve as a control. Sample plates were then incubated for 24 h at 37° C. After incubation, the medium was discarded from the wells and the plates were washed thoroughly with water. Plates were then stained with 100 μL of 0.1% solution of crystal violet (CV) and then incubated at ambient temperature for 30 min. Plates were washed with water again and the remaining stain was solubilized with 200 μL of 95% ethanol. A sample of 125 μL of solubilized CV stain from each well was transferred to the corresponding wells of a polystyrene microtiter dish. Biofilm dispersion was quantitated by measuring the OD540 of each well in which a negative control lane wherein no biofilm was formed served as a background and was subtracted out.

S. epidermidis = assay: Dispersion of pre-formed biofilms; format: cell-based; settings: Staphylococcus epidermidis, read-out: EC50, 50% dispersion of a pre-formed biofilm
Experimental: as §3, §4, §5

V. vulnificus = assay: Dispersion of pre-formed biofilms; format: cell-based; settings: Vibrio vulnificus, read-out: EC50, 50% dispersion of a pre-formed biofilm
Experimental: as §3, §4, §5

E. coli = assay: Dispersion of pre-formed biofilms; format: cell-based; settings: Escherichia coli, read-out: EC50, 50% dispersion of a pre-formed biofilm
Experimental: as §3, §4, §5

V. cholerae = assay: Dispersion of pre-formed biofilms; format: cell-based; settings: Vibrio cholerae, read-out: EC50, 50% dispersion of a pre-formed biofilm
Experimental: as §3, §4, §5

MRSA = assay: Broth microdilution MIC; format: cell-based, methicillin-resistant S. aureus; settings: Staphylococcus aureus
Experimental: (§6) Once it was determined that this specific 4,5-disubstitution pattern imparted microbicidal activity onto the 2-AI framework, this activity was quantified by measuring the MIC of each derivative against a variety of representative pathogenic bacterial strains using the microdilution protocol (CSLI, Performance Standards for Antimicrobial Suceptibility Testing; Nineteenth Informational Supplement, Clinical and Laboratory Standards Institute, Wayne, Pa., 2009). E. coli, MDRAB, P. aeruginosa, MRSA, MSSA, S. epidermidis and VRE were used for initial evaluation. From this screen, compound 15 was determined to be the lead compound and had MIC values (μg/mL) of 2, 2, 1, 0.5, 0.25, and 1 against E. coli, MDRAB, MRSA, VRE, S. Epidermidis and MSSA.
(§7) S. aureus (ATCC #29213), S. epidermidis (ATCC #29886), MRSA (ATCC # BAA-44), MDRAB (ATCC # BAA-1605), vancomycin resistant Enterococcus faecium (VRE) (ATCC #51559) and E. coli (ATCC #35695) were obtained from the ATCC. Mechanically difibrinated sheep blood (DSB100) was obtained from Hemostat Labs. Mueller-Hinton medium was purchased from Fluka (#70192).
(§8) Broth Microdilution Method for MIC Determination.

[1] = test system: Rhodospirillum salexigens; assay: Marine bacteria microdilution MIC; settings: R. salexigens
MSSA [2] = assay: Dispersion of pre-formed biofilms; format: cell-based, S. aureus; settings: Staphylococcus aureus, read-out: EC50, 50% dispersion of a pre-formed biofilm
Experimental: as §1, §2

MSSA [3] = assay: Broth microdilution MIC; format: cell-based, S. aureus; settings: Staphylococcus aureus
Experimental: as §6, §7, §8

SMILES	EC50 (L. anguillarum)	EC50 (R. salexigens)	EC50 (VRE)	MIC (Vibrio cholerae)	MIC (Vibrio cholerae; Vibrio cholerae)	EC50 (MDRAB)	EC50 (S. epidermidis)	EC50 (V. vulnificus)	EC50 (E. coli)	EC50 (V. cholerae)	MIC (MRSA)	MIC [1]	MIC ([1]; Rhodothalassium salexigens)	EC50 (MSSA [2])	MIC (MSSA [3])
CCCCCCc1[nH]c(N)nc1CCCCCc1ccccc1 [Compound 19, 5-hexyl-4-(5-phenylpentyl)-1H-imidazol-2-amine]	13.8 ± 1.5 µM	17.6 ± 3.2 µM	14.1 ± 0.2 µM	2.19 mg/L (≈ 6.99 µM)	2.2 mg/L (≈ 7.02 µM)	11.1 ± 0.1 µM	17.7 ± 0.3 µM	3.2 ± 1.3 µM	42.5 ± 6.1 µM	14.7 ± 1.8 µM	1 mg/L (≈ 3.19 µM)	1.09 mg/L (≈ 3.48 µM)	1.1 mg/L (≈ 3.51 µM)	26.1 ± 0.7 µM	1 mg/L (≈ 3.19 µM)
CCCCCc1[nH]c(N)nc1CCCCCc1ccccc1 [Compound 15, 5-pentyl-4-(5-phenylpentyl)-1H-imidazol-2-amine]	14.7 ± 1.7 µM	6.6 ± 1.1 µM	17.3 ± 2.3 µM	4.20 mg/L (≈ 14 µM)	4.2 mg/L (≈ 14 µM)	7.1 ± 1.3 µM	24.7 ± 5.8 µM	18.1 ± 2.3 µM	12 ± 1.6 µM	7.12 ± 0.3 µM	1 mg/L (≈ 3.34 µM)	2.10 mg/L (≈ 7.01 µM)	2.1 mg/L (≈ 7.01 µM)	19.9 ± 3.3 µM	1 mg/L (≈ 3.34 µM)
